# Measurements from patent US10456441B2, “Augmenting the immune response by promoting cell death of immune cells” (The University of Vermont and State Agricultural College, priority 2014, dated 2019).
# Where a SMILES comes first, the peptide text is derived from it. The star is where a group is joined. Cbz = O=C(OCc1ccccc1)*; CH2F = FC*
# Key:
# [1] = system: BMDC; test: Cell death of BMDC by TUNEL assay; type: cell-based, mice
# Experimental: The preparation of bone marrow-derived dendritic cells (BMDC) was done according to the method of Lutz et al. (26) using GM-CSF ([…] PeproTech, Rocky Hill N.J.) or GM-CSF plus IL-4 (10 μg/ml, PeproTech). Cells were used on day 7.
# (§1) Cell death was examined by terminal deoxynucleotidyl transferase dUTP nick end labeling (TUNEL). Briefly, cells were stained for expression of cell surface molecules, and then fixed with 1% methanol-free formaldehyde followed by 70% ethanol. After washing, the TUNEL reaction was performed by incubating cells in 50 μl of reaction mix containing 10 units of terminal deoxribosyl transferase (TdT), 2.5 mM cobalt chloride in 1× TdT buffer, and 0.2 pmol/μl of FITC-dUTP (Roche, Indianapolis, Ind.) at 37° C. for 1 hour. The cells were washed twice and fixed in 1% methanol-free formaldehyde. Murine thymocytes were included as a positive control for apoptotic cells. Flow cytometry was performed on an LSRII (BD Biosciences, San Jose, Calif.) calibrated with compensation beads (BD Biosciences). Analysis was performed using FlowJo software (Tree Star, Inc., Ashland, Oreg.).
# [2] = system: γδ T cells; test: Cell death of γδ T cells by TUNEL assay; type: cell-based, mice; details: 50 μM zVAD
# Experimental: Spleens were isolated and disrupted through nylon mesh in RPMI 1640 with 25 mm Hepes (MediaTech, Herndon, Va.) containing 5% (v/v) bovine calf serum (HyClone, Logan, Utah). Erythrocyte lysis of splenocytes was performed using Geys solution. γδ T lymphocytes were enriched by negative selection using a magnetic bead system (Qiagen, Valencia, Calif.) in which splenocytes were incubated with a cocktail of rat monoclonal antibodies to mouse CD4 (clone GK 1.5), CD8 (clone Tib105), class II (clone M5/114/15/2), CD11b (clone M1/70), and B220 (CD45R) (clone RA3-6B2). Cells were washed three times and then rocked with goat anti-rat conjugated magnetic beads at a 10:1 ratio of beads to cell at 4° C. for 45 min. Magnetic depletion was used to remove bead-bound cells. Finally, enriched γδ T cells were resuspended in complete medium (RPMI 1640 (Mediatech, Inc., Herndon, Va., USA), 2.5 mg/ml glucose (Sigma, St. Louis, Mo.), […] folate (Invitrogen, Carlsbad, Calif.), 110 μg/ml pyruvate (Invitrogen), 5×10^−5 M 2-mercaptoethanol (Sigma), 292.3 μg/ml glutamine (Invitrogen), 100 units/ml penicillin-streptomycin (Invitrogen), and 5% bovine calf serum). […] Cells were counted daily and supplied with fresh media containing 50 units/ml IL-2. […]
# [3] = system: RIPK1; test: RIPK1 cleavage in BMDC by immunoblot; type: cell-based, mice
# Experimental: Day 7 BMDC were lysed in Tris-buffer containing Complete Protease Inhibitor (Roche), 0.2% NP-40 (Roche), and biotin-VAD-fmk (10 μM, MP Biomedicals, Santa Ana, Calif.). Insoluble cell fragments were removed by centrifugation, and the protein concentration of the resulting whole cell lysates was determined by Bradford assay (BioRad, Hercules, Calif.). Whole cell lysates (30 μg per lane) were separated by SDS-PAGE. Precipitation of active caspases was performed by rocking 600 μg of whole cell lysates initially with sepharose 4B beads (Sigma) at 4° C. for 2 hours to remove nonspecific binding of proteins to the beads, followed by overnight rocking incubation with streptavidin-conjugated sepharose beads (Invitrogen) at 4° C. Release of biotin-VAD-fmk-labeled caspases from the streptavidin beads was achieved by heating to 95° C. for 10 min in Laemmli buffer. After gel electrophoresis, proteins were transferred to PVDF membranes (0.2 μm pore size, Bio-Rad), and immunoblots were performed using antibodies (1 μg/ml) against caspase-3, caspase-8 (both Cell Signaling, Danvers, Mass.), caspase-9 (Stressgen, Farmingdale, N.Y.), and RIPK1 (BD Biosciences).
# [4] = system: human DC; test: Cell death of human DC from peripheral blood monocytes; type: cell-based; details: human DC cultured with GM-CSF, zVAD at doses very similar to murine DC, 20 h
# Experimental: as §1, with “Human monocytes were obtained as […] cells by magnetic bead purification (Miltenyi Biotech, Auburn, Calif.) from peripheral blood of healthy volunteers. Myeloid DC were prepared by culture of monocytes in AIM V media plus 10% fetal calf serum (HyClone) with 800 U/ml of granulocyte-macrophage colony-stimulating factor (GM-CSF), (BioLegend, San Diego, Calif.) without or with 500 U/ml IL-4 (BioLegend). Cell” for “Cell”
# [5] = animal models; cited from earlier work
smiles,measurement,setting,value
"CC(C)[C@H](NC(=O)OCc1ccccc1)C(=O)N[C@@H](C)C(=O)N[C@@H](CC(=O)O)C(=O)CF [zVAD, N-benzyloxycarbonyl-Val-Ala-Asp-fluoromethyl ketone] (Cbz-Val-Ala-Asp-CH2F)",dead BMDC,"[1]; 50 μM zVAD, BMDC grown in GM-CSF, within 18 hours, dose-dependent",~80%
same,cell death of BMDC,"[1]; GM-CSF+IL-4-cultured BMDC with zVAD, compared to BMDC cultured with only GM-CSF",greatly reduced cell death
same,cell death of γδ T cells,[2],no increase in cell death
same,cleavage of RIPK1,"[3]; BMDC cultured with GM-CSF only, zVAD",completely inhibited cleavage
same,cleavage of RIPK1,"[3]; BMDC cultured with GM-CSF+IL-4, zVAD",only partially inhibited
same,death of human DC,[4],highly susceptible to death
same,reducing cell death after ischemia in multiple tissues,[5],highly effective
